In one assay the target is Plasmepsin II (Plasmodium falciparum, UniProt P46925). As to the kind of experiment: Enzyme Inhibition Assay : Plasmepsin-2 (PM-2; Plm II) and Plasmepsin (PM-4; Plm IV) expression and purification was performed following the published protocols (Istvan E S and Goldberg D E, 2005). The final purified protein was activated by diluting the protein to 0.3 mg/mL in activating buffer (0.1 M citrate pH 4.5, 0.1% Tween-20, 50 mM dithiothreitol) and incubated at room temperature for 40 min, then the activated enzyme was diluted in assay buffer (50 mM sodium acetate pH 4.7, 0.01% Tween-20). The enzymatic inhibition reaction was performed in 384 well plates with a total volume of 20 μl. 10 μl of diluted PM-2 or PM-4 enzyme was added to the 384-well plate except blank wells (blank wells add 10 μL of assay buffer) and 20 nL of serials of diluted 1000× compounds were added to the wells with 520 Echo® Liquid Handling System (Labcyte Inc.). 10 μL PM-2 peptide substrate (AnaSpec, Cat#, 62050) with assay buffer was then added to final concentration of 20 μM to start the reaction.

A further assay deals with Beta-secretase 1 (Homo sapiens, UniProt P56817). As to the kind of experiment: The enzymatic inhibition activity assays were determined using the fluorescence resonance energy transfer (FRET) assay. The assays were performed in a 384-well plate format. […] The concentration of Cathepsin D was 20 ng/μL, and 1 ng/μL of Cathepsin E was used. CatD and CatE were activated by incubation in assay buffer (0.1 M NaOAc, 0.2 M NaCl, pH 3.5) at room temperature for 30 min. Subsequently, the rhBACE-1 substrate (R&D Systems, catalog# ES004), the Cathepsin D and Cathepsin E substrate (R&D Systems, Catalog # ES001) were added accordingly to final concentration.

These results are taken from ChEMBL document CHEMBL3886201, “Compositions and methods for the treatment of malaria” (2016).

Plasmepsin II, sequence (P46925 whole entry): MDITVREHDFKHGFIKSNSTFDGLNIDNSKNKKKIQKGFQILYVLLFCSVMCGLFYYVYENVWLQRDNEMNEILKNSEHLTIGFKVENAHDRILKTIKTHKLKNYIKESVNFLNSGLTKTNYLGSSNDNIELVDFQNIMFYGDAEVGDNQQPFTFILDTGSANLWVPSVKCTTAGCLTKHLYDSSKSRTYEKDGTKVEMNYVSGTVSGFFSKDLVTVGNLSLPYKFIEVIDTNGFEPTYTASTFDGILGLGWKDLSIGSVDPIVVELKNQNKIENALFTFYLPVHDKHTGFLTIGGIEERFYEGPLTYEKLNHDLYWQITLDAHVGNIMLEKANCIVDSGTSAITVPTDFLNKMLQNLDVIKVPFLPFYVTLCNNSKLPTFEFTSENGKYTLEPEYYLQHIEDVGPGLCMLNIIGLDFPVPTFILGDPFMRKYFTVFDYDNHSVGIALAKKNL
Beta-secretase 1, sequence (P56817 whole entry): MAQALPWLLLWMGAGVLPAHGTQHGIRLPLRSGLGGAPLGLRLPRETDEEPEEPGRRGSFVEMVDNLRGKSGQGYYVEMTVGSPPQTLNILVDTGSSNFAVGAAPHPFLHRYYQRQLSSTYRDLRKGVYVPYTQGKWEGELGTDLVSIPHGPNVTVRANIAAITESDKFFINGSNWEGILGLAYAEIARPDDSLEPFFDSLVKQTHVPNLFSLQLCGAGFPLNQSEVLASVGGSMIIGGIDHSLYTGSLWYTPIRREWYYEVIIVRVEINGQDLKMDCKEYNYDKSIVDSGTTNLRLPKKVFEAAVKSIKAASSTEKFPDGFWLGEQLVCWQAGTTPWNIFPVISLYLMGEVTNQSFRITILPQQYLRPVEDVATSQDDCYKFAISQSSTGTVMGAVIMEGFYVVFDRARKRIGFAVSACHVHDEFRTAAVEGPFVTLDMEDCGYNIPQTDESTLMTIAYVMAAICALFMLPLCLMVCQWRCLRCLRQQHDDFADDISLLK

As a reminder, the IC50 is the midpoint of a concentration-inhibition curve. With `N=C1NC(c2ccccc2)(c2cccc(Oc3ccccc3)c2)C(=O)N1C1CCCCC1` (stereo not drawn), at Plasmepsin II, the IC50 was found to be 2.2 nM. This counts as single-digit nanomolar. For the compound `N=C1NC(c2cccc(-c3cccnc3)c2)(C2CC2)C(=O)N1C1CCCCC1` (stereo not drawn), the figures for the IC50 at Plasmepsin II and at Beta-secretase 1 were 126 nM and 16800 nM, respectively.
